Publication PMC11033320, “Activation of p53 signaling and regression of breast and prostate carcinoma cells by spirooxindole-benzimidazole small molecules” (Frontiers in Pharmacology, 2024)

Assays:
HOP-92 = experiment: NCI anticancer screening, Non-Small Cell Lung Cancer HOP-92; type: cell-based; conditions: Homo sapiens; HOP-92, 10 μM; read-out: % Growth Inhibition (GI %)
From the text: (§1) The compound has been processed according to standard method NCI-60 Human Tumor Cell Lines Screen for organic compound at development therapeutic program (DTP). Requests for access to this national resource can be submitted online at: […]

SF-295 = experiment: NCI anticancer screening, CNS Cancer SF-295; type: cell-based; conditions: Homo sapiens; SF-295, 10 μM; read-out: % Growth Inhibition (GI %)
From the text: as §1

NCI/ADR-RES = experiment: NCI anticancer screening, Ovarian Cancer NCI/ADR-RES; type: cell-based; conditions: Homo sapiens, read-out: % Growth Inhibition (GI %)
From the text: as §1

NCI-H460 = experiment: NCI anticancer screening, Non-Small Cell Lung Cancer NCI-H460; type: cell-based; conditions: Homo sapiens; NCI-H460, 10 μM; read-out: % Growth Inhibition (GI %)
From the text: as §1

TK-10 = experiment: NCI anticancer screening, Renal Cancer TK-10; type: cell-based; conditions: Homo sapiens; TK-10, 10 μM; read-out: % Growth Inhibition (GI %)
From the text: as §1

SF-539 = experiment: NCI anticancer screening, CNS Cancer SF-539; type: cell-based; conditions: Homo sapiens; SF-539, 10 μM; read-out: % Growth Inhibition (GI %)
From the text: as §1

HCT-116 = experiment: NCI anticancer screening, Colon Cancer HCT-116; type: cell-based; conditions: Homo sapiens; HCT-116, 10 μM; read-out: % Growth Inhibition (GI %)
From the text: as §1

SR = experiment: NCI anticancer screening, Leukemia SR; type: cell-based; conditions: Homo sapiens, read-out: % Growth Inhibition (GI %)
From the text: as §1

SNB-75 = experiment: NCI anticancer screening, CNS Cancer SNB-75; type: cell-based; conditions: Homo sapiens; SNB-75, 10 μM; read-out: % Growth Inhibition (GI %)
From the text: as §1

MDA-MB-468 = experiment: NCI anticancer screening, Breast Cancer MDA-MB-468; type: cell-based; conditions: Homo sapiens, read-out: % Growth Inhibition (GI %)
From the text: as §1

LOX IMVI = experiment: NCI anticancer screening, Melanoma LOX IMVI; type: cell-based; conditions: Homo sapiens, read-out: % Growth Inhibition (GI %)
From the text: as §1

SW-620 = experiment: NCI anticancer screening, Colon Cancer SW-620; type: cell-based; conditions: Homo sapiens; SW-620, 10 μM; read-out: % Growth Inhibition (GI %)
From the text: as §1

SF-268 = experiment: NCI anticancer screening, CNS Cancer SF-268; type: cell-based; conditions: Homo sapiens; SF-268, 10 μM; read-out: % Growth Inhibition (GI %)
From the text: as §1

SK-MEL-2 = experiment: NCI anticancer screening, Melanoma SK-MEL-2; type: cell-based; conditions: Homo sapiens; SK-MEL-2, 10 μM; read-out: % Growth Inhibition (GI %)
From the text: as §1

BT-549 = experiment: NCI anticancer screening, Breast Cancer BT-549; type: cell-based; conditions: Homo sapiens; BT-549, 10 μM; read-out: % Growth Inhibition (GI %)
From the text: as §1

EKVX = experiment: NCI anticancer screening, Non-Small Cell Lung Cancer EKVX; type: cell-based; conditions: Homo sapiens, read-out: % Growth Inhibition (GI %)
From the text: as §1

MCF7 = experiment: NCI anticancer screening, Breast Cancer MCF7; type: cell-based; conditions: Homo sapiens; MCF7, 10 μM; read-out: % Growth Inhibition (GI %)
From the text: as §1

NCI-H322M = experiment: NCI anticancer screening, Non-Small Cell Lung Cancer NCI-H322M; type: cell-based; conditions: Homo sapiens, read-out: % Growth Inhibition (GI %)
From the text: as §1

HCT-15 = experiment: NCI anticancer screening, Colon Cancer HCT-15; type: cell-based; conditions: Homo sapiens; HCT-15, 10 μM; read-out: % Growth Inhibition (GI %)
From the text: as §1

CCRF-CEM = experiment: NCI anticancer screening, Leukemia CCRF-CEM; type: cell-based; conditions: Homo sapiens, read-out: % Growth Inhibition (GI %)
From the text: as §1

HS 578T = experiment: NCI anticancer screening, Breast Cancer HS 578T; type: cell-based; conditions: Homo sapiens, read-out: % Growth Inhibition (GI %)
From the text: as §1

KM12 = experiment: NCI anticancer screening, Colon Cancer KM12; type: cell-based; conditions: Homo sapiens; KM12, 10 μM; read-out: % Growth Inhibition (GI %)
From the text: as §1

OVCAR-5 = experiment: NCI anticancer screening, Ovarian Cancer OVCAR-5; type: cell-based; conditions: Homo sapiens; OVCAR-5, 10 μM; read-out: % Growth Inhibition (GI %)
From the text: as §1

SK-MEL-5 = experiment: NCI anticancer screening, Melanoma SK-MEL-5; type: cell-based; conditions: Homo sapiens; SK-MEL-5, 10 μM; read-out: % Growth Inhibition (GI %)
From the text: as §1

MDA-MB-435 = experiment: NCI anticancer screening, Melanoma MDA-MB-435; type: cell-based; conditions: Homo sapiens; MDA-MB-435, 10 μM; read-out: % Growth Inhibition (GI %)
From the text: as §1

SN12C = experiment: NCI anticancer screening, Renal Cancer SN12C; type: cell-based; conditions: Homo sapiens, read-out: % Growth Inhibition (GI %)
From the text: as §1

K-562 = experiment: NCI anticancer screening, Leukemia K-562; type: cell-based; conditions: Homo sapiens, K562; K-562, 10 μM; read-out: % Growth Inhibition (GI %)
From the text: as §1

M14 = experiment: NCI anticancer screening, Melanoma M14; type: cell-based; conditions: Homo sapiens; M14, 10 μM; read-out: % Growth Inhibition (GI %)
From the text: as §1

UO-31 = experiment: NCI anticancer screening, Renal Cancer UO-31; type: cell-based; conditions: Homo sapiens; UO-31, 10 μM; read-out: % Growth Inhibition (GI %)
From the text: as §1

SNB-19 = experiment: NCI anticancer screening, CNS Cancer SNB-19; type: cell-based; conditions: Homo sapiens; SNB-19, 10 μM; read-out: % Growth Inhibition (GI %)
From the text: as §1

OVCAR-8 = experiment: NCI anticancer screening, Ovarian Cancer OVCAR-8; type: cell-based; conditions: Homo sapiens; OVCAR-8, 10 μM; read-out: % Growth Inhibition (GI %)
From the text: as §1

T-47D = experiment: NCI anticancer screening, Breast Cancer T-47D; type: cell-based; conditions: Homo sapiens, T47D, read-out: % Growth Inhibition (GI %)
From the text: as §1

U251 = experiment: NCI anticancer screening, CNS Cancer U251; type: cell-based; conditions: Homo sapiens, U-251; U251, 10 μM; read-out: % Growth Inhibition (GI %)
From the text: as §1

NCI-H23 = experiment: NCI anticancer screening, Non-Small Cell Lung Cancer NCI-H23; type: cell-based; conditions: Homo sapiens; NCI-H23, 10 μM; read-out: % Growth Inhibition (GI %)
From the text: as §1

OVCAR-4 = experiment: NCI anticancer screening, Ovarian Cancer OVCAR-4; type: cell-based; conditions: Homo sapiens; OVCAR-4, 10 μM; read-out: % Growth Inhibition (GI %)
From the text: as §1

MDA-MB 231 cells = conditions: for inhibition: 5 µM
Experimental: Anticancer effect of the above-mentioned compounds was assayed using three human cancer cell lines. Triple negative breast cancer cell line (MDA-MB 231) and prostate cancer cell line (PC3) were cultured in DMEM (Lonza, USA) supplemented with 10% FBS. All cancer cells (4x10^3 cells/well) were seeded in sterile 96-well plates. After 24h, serial concentrations of the tested compounds were incubated with three cancer cell lines for 72 h at 37 °C in 5% CO2 incubator. […] The half maximal inhibitory concentration (IC50) values were calculated using the Graphpad Instat software.

Compound | inhibition at 10 µM (HOP-92) [%] | inhibition at 10 µM (SF-295) [%] | inhibition at 10 µM (NCI/ADR-RES) [%] | inhibition at 10 µM (NCI-H460) [%] | inhibition at 10 µM (TK-10) [%] | inhibition at 10 µM (SF-539) [%] | inhibition at 10 µM (HCT-116) [%] | inhibition at 10 µM (SR) [%] | inhibition at 10 µM (SNB-75) [%] | inhibition at 10 µM (MDA-MB-468) [%] | inhibition at 10 µM (LOX IMVI) [%] | inhibition at 10 µM (SW-620) [%] | inhibition at 10 µM (SF-268) [%] | inhibition at 10 µM (SK-MEL-2) [%] | inhibition at 10 µM (BT-549) [%] | inhibition at 10 µM (EKVX) [%] | inhibition at 10 µM (MCF7) [%] | inhibition at 10 µM (NCI-H322M) [%] | inhibition at 10 µM (HCT-15) [%] | inhibition at 10 µM (CCRF-CEM) [%] | further results
Cc1ccc([C@@H]2C3CSCN3[C@]3(C(=O)Nc4ccccc43)[C@H]2C(=O)c2nc3ccccc3[nH]2)cc1 (mixture of isomers) [Compound 6d, (3S,6′R)-6'-(1H-Benzo [d]imidazole-2-carbonyl)-7'-(p-tolyl)-3′,6′,7′,7a′-tetrahydro-1′H-spiro [indoline-3.5′-pyrrolo [1,2-c]thiazol]-2-one] | 87 | 59 | 86.2 | 84.5 | 94.5 | 81.9 | 74.5 | 102 | 61.4 | 63.5 | 82 | 92 | 64 | 93.6 | 96.2 | 71.6 | 70.4 | 83.1 | 83.6 | 89.5 | inhibition at 10 µM (HS 578T): 78.6%; inhibition at 10 µM (KM12): 75.4%; inhibition at 10 µM (OVCAR-5): 95.2%; inhibition at 10 µM (SK-MEL-5): 83.3%; inhibition at 10 µM (MDA-MB-435): 70.6%; inhibition at 10 µM (SN12C): 85.2%; inhibition at 10 µM (K-562): 81.6%; inhibition at 10 µM (M14): 74.7%; inhibition at 10 µM (UO-31): 54.3%; inhibition at 10 µM (SNB-19): 80.3%; inhibition at 10 µM (OVCAR-8): 95.9%; inhibition at 10 µM (T-47D): 68.8%; inhibition at 10 µM (U251): 73.3%; inhibition at 10 µM (NCI-H23): 91.2%; inhibition at 10 µM (OVCAR-4): 62.4%; IC50 (MDA-MB 231 cells): 4.3 ± 0.137 µM; inhibition (MDA-MB 231 cells): 51.7 ± 1.3%
O=C(c1nc2ccccc2[nH]1)[C@H]1[C@H](c2ccccc2)C2CSCN2[C@]12C(=O)Nc1ccccc12 (mixture of isomers) [Compound 6a, (3S,6′R)-6'-(1H-benzo [d]imidazole-2-carbonyl)-7′-phenyl-3′,6′,7′,7a′-tetrahydro-1′H-spiro [indoline-3.5′-pyrrolo [1,2-c]thiazol]-2-one] | 95.5 | 104 | 105 | 106 | 110 | 95.1 | 106 | 94.2 | 79.8 | 100 | 98.7 | 97.8 | 98.1 | 101 | 102 | 106 | 98.1 | 98.1 | 109 | 111 | inhibition at 10 µM (HS 578T): 103%; inhibition at 10 µM (KM12): 105%; inhibition at 10 µM (OVCAR-5): 104%; inhibition at 10 µM (SK-MEL-5): 92.7%; inhibition at 10 µM (MDA-MB-435): 103%; inhibition at 10 µM (SN12C): 106%; inhibition at 10 µM (K-562): 105%; inhibition at 10 µM (M14): 107%; inhibition at 10 µM (UO-31): 77.2%; inhibition at 10 µM (SNB-19): 97%; inhibition at 10 µM (OVCAR-8): 96.1%; inhibition at 10 µM (T-47D): 88%; inhibition at 10 µM (U251): 93.9%; inhibition at 10 µM (NCI-H23): 104%; inhibition at 10 µM (OVCAR-4): 108%; IC50 (MDA-MB 231 cells): 2.97 ± 0.047 µM; inhibition (MDA-MB 231 cells): 55.5 ± 0.761%
